In article PMC7468908 (Nutrients, 2020):
Where two headings read alike, the source gives them in different places.

Key:
CYP3A4 = molecular target: T1, CYP3A4 (Homo sapiens, UniProt P08684); assay: CYP3A4-catalyzed testosterone hydroxylation (CypExpress kit, HPLC); type: biochemical; settings: for concentration inducing statistically significant (p < 0.01) decrease in metabolite formation, CYP3A4: substrate 5 µM testosterone
T1 construct: purchased Sigma-Aldrich
Procedure: (§1) Inhibition of CYP2C19 [47], 3A4 [48], and 2D6 [49] by Q and its conjugates was tested based on our previously reported methods, without modifications.
(§2) S-mephenytoin and 4-hydroxymephenytoin (CYP2C19 assay), testosterone and 6β-hydroxytestosterone (CYP3A4 assay), as well as dextromethorphan and dextrorphan (CYP2D6 assay) were quantified using the previously described methods, with minor modifications.
In the CYP3A4 assay, samples were driven through a guard column (Security Guard™ Catridge C18 4.0 × 3.0 mm; Phenomenex, Torrance, CA, USA) linked to an analytical column (Kinetex C18 150 × 4.6 mm; 5 µm; Phenomenex, Torrance, CA, USA), with a 1.2 mL/min flow rate, at room temperature. The mobile phase contained methanol (VWR, Budapest, Hungary), water, and acetic acid (53:46:1 v/v%). After the isocratic elution, testosterone and 6β-hydroxytestosterone were detected at 240 nm.

CYP2D6 = molecular target: T2, CYP2D6 (Homo sapiens, UniProt P10635); assay: CYP2D6-catalyzed dextromethorphan O-demethylation (CypExpress kit, HPLC); type: biochemical; settings: up to 30 μM flavonoid, substrate 5 µM dextromethorphan
T2 construct: purchased Sigma-Aldrich
Procedure: as §1, §2
In the CYP2D6 assay, samples were driven through a guard column (Security Guard C8, 4.0 × 3.0 mm; Phenomenex, Torrance, CA, USA) linked to an analytical column (Mediterranea Sea8 C8 150 × 4.6 mm; 5 µm; Teknokroma, Barcelona, Spain). The isocratic elution was performed with 1 mL/min flow rate at room temperature, the mobile phase contained acetonitrile and 6.9 mM sodium-acetate buffer (pH 4.0) (31:69 v/v%). Dextromethorphan and dextrorphan were detected at 280 nm.

OATP2B1 = molecular target: T3, OATP2B1 (Homo sapiens, UniProt O94956); assay: OATP2B1-mediated pyranine uptake in A431 cells overexpressing OATP2B1; type: cell-based; settings: 15 min; for IC50: A431-OATP2B1 cells
T3 construct: host or cells: A431
T3 sequence (O94956 1-709): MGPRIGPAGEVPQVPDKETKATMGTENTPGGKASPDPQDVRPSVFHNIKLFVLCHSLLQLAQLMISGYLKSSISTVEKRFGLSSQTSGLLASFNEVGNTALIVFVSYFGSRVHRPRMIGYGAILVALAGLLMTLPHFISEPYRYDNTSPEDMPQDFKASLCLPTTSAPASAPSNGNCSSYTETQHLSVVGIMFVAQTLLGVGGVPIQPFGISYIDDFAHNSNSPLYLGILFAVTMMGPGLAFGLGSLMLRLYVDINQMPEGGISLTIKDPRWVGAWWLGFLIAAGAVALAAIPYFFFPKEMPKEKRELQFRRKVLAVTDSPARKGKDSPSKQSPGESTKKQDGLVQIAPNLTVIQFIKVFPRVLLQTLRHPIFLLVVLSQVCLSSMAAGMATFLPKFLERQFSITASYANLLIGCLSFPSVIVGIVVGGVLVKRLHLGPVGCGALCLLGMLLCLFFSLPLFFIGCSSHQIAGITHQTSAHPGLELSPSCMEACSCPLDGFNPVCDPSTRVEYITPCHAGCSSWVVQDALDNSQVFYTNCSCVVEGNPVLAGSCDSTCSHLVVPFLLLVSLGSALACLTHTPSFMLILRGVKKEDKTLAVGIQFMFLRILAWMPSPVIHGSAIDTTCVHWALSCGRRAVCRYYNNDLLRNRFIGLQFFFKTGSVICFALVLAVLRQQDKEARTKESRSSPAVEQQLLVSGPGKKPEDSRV
Procedure: A431 cells overexpressing human OATPs, 1A2 (BC042452, HsCD00333163), 1B1 (Gene ID: AB026257), 1B3 (BC141525, HsCD00348132) or 2B1 (BC041095.1, HsCD00378878), or their mock transfected controls, were generated as previously described. Cells were cultured in Dulbecco’s Modified Eagle Medium (DMEM; Thermo Fischer Scientific, Waltham, MA, USA) supplemented with 10% fetal bovine serum, 2 mM L-glutamine, 100 units/mL penicillin and 100 µg/mL streptomycin, at 37 °C with 5% CO2.
The interaction between flavonoids and OATPs was investigated in an indirect assay employing the fluorescent dye substrates, pyranine and sulforhodamine 101 [51, 52]. Briefly, A431 cell overexpressing OATPs, 1A2, 1B1, 1B3 or 2B1, or their mock transfected controls, were seeded on 96-well plates in a density of 8x10^4 cells/well in 200 μL DMEM one day prior to the transport measurements. […] The reaction was started by the addition of 50 μL uptake buffer containing pyranine in a final concentration of 10 μM (OATP1B1) or 20 μM (OATP1B3 and OATP2B1), or 0.5 μM sulforhodamine 101 (OATP1A2). Thereafter, cells were incubated at 37°C for 15 min (OATP1B1 and OATP2B1), 10 min (OATP1A2), or 30 min (OATP1B3). The reactions were stopped by removing the supernatants, then the cells were washed three times with ice-cold PBS. Fluorescence (in 200 μL PBS/well) was determined employing an Enspire plate reader (Perkin Elmer, Waltham, MA) ex/em: 403/517 nm (pyranine) or 586/605 nm (sulforhodamine 101). OATP-dependent transport was calculated by extracting fluorescence measured in mock transfected cells. Transport activity was calculated based on the fluorescence signal in the absence (100%) of flavonoids. Experiments were repeated at least in three biological replicates. IC50 values were calculated by Hill1 fit, using the Origin Pro8.6 software ([…]).

[1] = some human subjects, 500 mg single dose of Q in certain oral carrier systems; cited from earlier work
[2] = testosterone hydroxylation, substrate 5 µM, read-out: IC50 for CYP3A4
[3] = 20 μM pyranine, read-out: IC50 for OATP2B1

T1 sequence (P08684 whole entry): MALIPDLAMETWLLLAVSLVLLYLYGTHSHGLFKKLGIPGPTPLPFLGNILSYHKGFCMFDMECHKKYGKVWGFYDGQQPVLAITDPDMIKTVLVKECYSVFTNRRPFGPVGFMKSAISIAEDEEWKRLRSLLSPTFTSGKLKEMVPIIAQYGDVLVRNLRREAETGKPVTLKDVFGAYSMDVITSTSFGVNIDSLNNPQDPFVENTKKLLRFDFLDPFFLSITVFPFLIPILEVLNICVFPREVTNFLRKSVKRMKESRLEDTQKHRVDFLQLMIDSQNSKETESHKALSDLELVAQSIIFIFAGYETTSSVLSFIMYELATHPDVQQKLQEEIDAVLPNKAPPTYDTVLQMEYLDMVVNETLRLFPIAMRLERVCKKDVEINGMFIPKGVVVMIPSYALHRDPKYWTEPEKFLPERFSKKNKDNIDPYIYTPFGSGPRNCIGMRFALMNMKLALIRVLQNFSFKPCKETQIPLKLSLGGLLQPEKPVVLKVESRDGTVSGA
T2 sequence (P10635 whole entry): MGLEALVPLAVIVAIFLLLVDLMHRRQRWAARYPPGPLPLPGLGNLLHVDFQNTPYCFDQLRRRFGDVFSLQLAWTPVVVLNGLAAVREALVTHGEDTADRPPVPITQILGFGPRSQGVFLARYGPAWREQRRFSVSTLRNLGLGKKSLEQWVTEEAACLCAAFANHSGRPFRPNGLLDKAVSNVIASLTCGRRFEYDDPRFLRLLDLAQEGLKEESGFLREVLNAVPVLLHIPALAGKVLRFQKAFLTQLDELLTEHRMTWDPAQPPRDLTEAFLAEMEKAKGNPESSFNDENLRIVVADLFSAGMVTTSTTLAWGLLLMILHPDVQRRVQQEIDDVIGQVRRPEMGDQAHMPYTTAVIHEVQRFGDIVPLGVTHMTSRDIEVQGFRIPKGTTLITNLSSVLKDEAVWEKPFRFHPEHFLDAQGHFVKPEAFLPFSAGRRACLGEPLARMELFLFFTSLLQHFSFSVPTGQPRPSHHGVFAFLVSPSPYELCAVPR

| SMILES | concentration inducing statistically significant (p < 0.01) decrease in metabolite formation, CYP3A4 (CYP3A4) [µM] | IC50 (CYP3A4; [2]) [µM] | inhibition of CYP2D6 activity (CYP2D6) | concentration causing statistically significant (p < 0.01) inhibition, OATP2B1 (OATP2B1; 20 μM pyranine) [µM] | IC50 (OATP2B1; [3]) [µM] | IC50 (CYP3A4) [µM] | IC50 (OATP2B1; IC50 for OATP2B1, 20 μM pyranine) [µM] | peak plasma concentrations of total Q [1] [µM] |
| --- | --- | --- | --- | --- | --- | --- | --- | --- |
| COc1cc(-c2oc3cc(O)cc(O)c3c(=O)c2O)ccc1O [IR, isorhamnetin] | 10 | – | did not affect | 0.6 | – | > 30 | 0.82 | – |
| O=c1c(O)c(-c2ccc(O)c(O)c2)oc2cc(O)cc(O)c12 [Q, quercetin] | 5 | – | did not affect | 0.3 | 0.34 | – | – | 5 to 10 |

Second part, led by results:

| concentration inducing statistically significant (p < 0.01) decrease in metabolite formation, CYP3A4 (CYP3A4) [µM] | IC50 (CYP3A4; [2]) [µM] | inhibition of CYP2D6 activity (CYP2D6) | concentration causing statistically significant (p < 0.01) inhibition, OATP2B1 (OATP2B1; 20 μM pyranine) [µM] | IC50 (OATP2B1; [3]) [µM] | SMILES | IC50 (CYP3A4) [µM] | IC50 (OATP2B1; IC50 for OATP2B1, 20 μM pyranine) [µM] | peak plasma concentrations of total Q [1] [µM] |
| --- | --- | --- | --- | --- | --- | --- | --- | --- |
| 10 | > 30 | did not affect | 0.3 | 0.43 | O=c1c(O)c(-c2ccc(O)c(OS(=O)(=O)O)c2)oc2cc(O)cc(O)c12 [Q3′S, quercetin-3′-sulfate] | – | – | – |
| 20 | > 30 | did not affect | 3.1 | 4.85 | O=C(O)C1OC(Oc2c(-c3ccc(O)c(O)c3)oc3cc(O)cc(O)c3c2=O)C(O)C(O)C1O (stereo not shown) [Q3G, quercetin-3-glucuronide] | – | – | – |
| 10 | > 30 | did not affect | 1.6 | 4.14 | COc1cc(-c2oc3cc(O)cc(O)c3c(=O)c2OC2OC(C(=O)O)C(O)C(O)C2O)ccc1O (stereo not shown) [I3G, isorhamnetin-3-glucuronide] | – | – | – |
